Source: ChEMBL document CHEMBL1201862, “PubChem BioAssay data set” (2004)
The source made the active and inactive calls.

Legend:
[1] = target: Cytochrome P450 2D6 (Homo sapiens, UniProt P10635);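 note: CYP2D6 member of a cytochrome P450 panel assay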
[2] = target: T1, Tumor necrosis factor (Homo sapiens, UniProt P01375); test: analog potency on TNFa NF-kB signaling – cell-based, set 3, SAR follow-up (AID 2801); assay type: functional
[3] = target: T2, Nucleotide-binding oligomerization domain-containing protein 1 (Homo sapiens, UniProt Q9Y239); test: SAR analysis of NF-kappaB dependent luciferase using DAP as an inducer - Set 2. [Related pubchem assays (depositor defined):AID1566, AID1575, AID1578, AID1579, AID1849, AID1852, AID2264]; assay type: functional
T2 sequence (Q9Y239 whole entry): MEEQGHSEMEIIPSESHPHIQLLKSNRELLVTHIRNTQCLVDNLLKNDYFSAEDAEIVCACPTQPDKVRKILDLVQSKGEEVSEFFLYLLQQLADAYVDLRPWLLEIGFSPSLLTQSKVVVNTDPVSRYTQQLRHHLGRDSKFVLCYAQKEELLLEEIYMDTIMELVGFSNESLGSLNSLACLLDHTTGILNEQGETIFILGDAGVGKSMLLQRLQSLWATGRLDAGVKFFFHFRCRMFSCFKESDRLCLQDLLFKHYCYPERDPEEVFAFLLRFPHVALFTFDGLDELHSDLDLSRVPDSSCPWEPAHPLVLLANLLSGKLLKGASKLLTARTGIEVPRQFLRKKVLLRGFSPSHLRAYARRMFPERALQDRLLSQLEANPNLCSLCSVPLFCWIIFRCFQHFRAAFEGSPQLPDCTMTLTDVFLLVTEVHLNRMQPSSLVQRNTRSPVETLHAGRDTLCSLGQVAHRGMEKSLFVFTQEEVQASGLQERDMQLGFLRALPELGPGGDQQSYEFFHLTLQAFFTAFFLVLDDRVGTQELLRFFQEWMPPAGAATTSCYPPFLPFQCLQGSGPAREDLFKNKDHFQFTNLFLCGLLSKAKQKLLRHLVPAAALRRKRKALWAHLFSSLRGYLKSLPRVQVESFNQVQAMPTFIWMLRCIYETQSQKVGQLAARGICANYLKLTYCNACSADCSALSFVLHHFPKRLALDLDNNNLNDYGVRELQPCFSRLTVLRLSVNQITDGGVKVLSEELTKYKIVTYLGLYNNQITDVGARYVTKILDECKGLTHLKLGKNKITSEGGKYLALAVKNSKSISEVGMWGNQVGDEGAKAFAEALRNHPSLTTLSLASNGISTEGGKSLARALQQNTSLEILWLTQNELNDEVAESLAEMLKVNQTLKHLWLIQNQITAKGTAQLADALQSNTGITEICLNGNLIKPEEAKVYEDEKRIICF

[4] = tested on: HEK293; test: SAR analysis of compounds that are cytotoxic to HEK293 - Set 2. [Related pubchem assays (depositor defined):AID1575, AID1578, AID1849, AID2001, AID2333, AID2334, AID2335, AID2337, AID2800]; assay type: functional, cell-based; settings: Homo sapiens
[5] = target: T3, Interleukin-8 (Homo sapiens, UniProt P10145); test: SAR analysis of Tumor necrosis factor alpha (TNF-alpha) induced IL-8 secretion in MCF-7/NOD1 cells - Set 2. [Related pubchem assays (depositor defined):AID1575, AID2250, AID2260]; assay type: functional, cell-based
T3 sequence (P10145 whole entry): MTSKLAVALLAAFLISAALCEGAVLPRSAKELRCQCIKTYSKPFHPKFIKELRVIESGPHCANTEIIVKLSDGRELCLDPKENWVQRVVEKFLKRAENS

[6] = tested on: HEK293; test: SAR analysis of compounds that are cytotoxic to HEK293 - Set 3. [Related pubchem assays (depositor defined):AID1575, AID1578, AID1848, AID1849, AID2001, AID2333, AID2334, AID2335, AID2337, AID2469]; assay type: functional, cell-based; settings: Homo sapiens
[7] = target: T3, Interleukin-8; test: SAR analysis of GM-Tri-DAP induced IL-8 secretion in MCF-7/NOD1 cells - Set 2. [Related pubchem assays (depositor defined):AID1575, AID1578, AID2333]; assay type: functional, cell-based
[8] = target: T2, Nucleotide-binding oligomerization domain-containing protein 1; test: SAR analysis of compounds that inhibit NOD1 - Set 3. [Related pubchem assays (depositor defined):AID1566, AID1575, AID1578, AID1849, AID1852, AID2333, AID2335, AID2466]; assay type: functional
[9] = target: T4, Nucleotide-binding oligomerization domain-containing protein 2 (Homo sapiens, UniProt Q9HC29); test: inhibition of NOD2 signaling – set 2, SAR follow-up (AID 2475); assay type: functional
T4 sequence (Q9HC29 whole entry, the tested form may be a part): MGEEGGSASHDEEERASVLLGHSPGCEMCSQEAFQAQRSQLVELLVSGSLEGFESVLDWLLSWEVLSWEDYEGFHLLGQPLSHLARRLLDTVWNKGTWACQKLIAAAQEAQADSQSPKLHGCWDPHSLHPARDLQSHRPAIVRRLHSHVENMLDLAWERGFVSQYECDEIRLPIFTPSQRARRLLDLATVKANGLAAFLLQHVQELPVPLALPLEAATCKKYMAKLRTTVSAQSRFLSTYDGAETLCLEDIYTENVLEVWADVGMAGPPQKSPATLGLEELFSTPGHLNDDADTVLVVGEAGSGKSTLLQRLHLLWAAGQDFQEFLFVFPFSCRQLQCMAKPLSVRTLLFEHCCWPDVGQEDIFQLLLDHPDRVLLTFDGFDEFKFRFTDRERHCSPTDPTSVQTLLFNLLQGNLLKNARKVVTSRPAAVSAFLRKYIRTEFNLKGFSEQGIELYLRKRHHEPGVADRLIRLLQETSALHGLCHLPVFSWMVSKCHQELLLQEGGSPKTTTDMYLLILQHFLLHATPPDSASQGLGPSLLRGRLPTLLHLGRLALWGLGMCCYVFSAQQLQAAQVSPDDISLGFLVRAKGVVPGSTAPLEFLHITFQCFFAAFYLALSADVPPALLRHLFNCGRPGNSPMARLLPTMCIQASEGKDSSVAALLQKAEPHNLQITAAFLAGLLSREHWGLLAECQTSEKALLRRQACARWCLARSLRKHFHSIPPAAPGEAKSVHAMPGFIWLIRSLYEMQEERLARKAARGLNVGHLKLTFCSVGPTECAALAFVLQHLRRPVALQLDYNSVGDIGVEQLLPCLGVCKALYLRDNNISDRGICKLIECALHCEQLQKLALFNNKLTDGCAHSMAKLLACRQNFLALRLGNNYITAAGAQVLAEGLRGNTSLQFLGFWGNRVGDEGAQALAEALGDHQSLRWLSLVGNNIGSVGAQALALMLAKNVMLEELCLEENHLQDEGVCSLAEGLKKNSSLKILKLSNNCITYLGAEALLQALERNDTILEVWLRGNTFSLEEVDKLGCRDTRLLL

[10] = target: T4, Nucleotide-binding oligomerization domain-containing protein 2; test: inhibition of MDP-driven NOD2 NF-kB reporter – cell-based, set 3, SAR follow-up (AID 2799); assay type: functional
[11] = Counterscreen for AddAB inhibitors: absorbance-based bacterial cell-based high throughput dose response assay for inhibitors of bacterial viability. [Related pubchem assays (depositor defined):AID435030, AID449728, AID449731, AID488942, AID488955, AID488956]; assay type: functional
[12] = tested on: Streptococcus sp. 'group A'; test: Streptococcus pyogenes SK(-)GAS viability under kanamycin – luminescence, BacTiterGlo, confirmation, counter-screen for streptokinase expression inhibitor project, dose response (AID 1900); assay type: functional, organism-based
[13] = viability loss of HPDE-C7K cells – cell-based, fluorescence, HTS, primary screen (AID 431); assay type: functional; settings: Homo sapiens
[14] = HPDE-C7 pancreatic duct cell viability loss – fluorescence, HTS (AID 430); assay type: functional, cell-based; settings: Homo sapiens
[15] = tested on: Streptococcus; test: GAS UMAA2166 growth inhibition – luminescence, BacTiterGlo, counter-screen for streptokinase expression inhibitor project, dose response (AID 1915); assay type: functional, organism-based;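 note: potency for reduction of bacterial viability or growth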
[16] = target: Exodeoxyribonuclease V (Escherichia coli (strain K12), UniProt P04993+P07648+P08394); test: RecBCD inhibition via phage-restricted bacterial growth – absorbance, V66 E. coli, mutant T4 phage, counter-screen for AddAB inhibitor project, dose response (AID 492957); assay type: functional, cell-based, Escherichia coli str. K-12 substr. MG1655
[17] = target: Sphingosine 1-phosphate receptor 5 (Homo sapiens, UniProt Q9H228); test: Late stage counterscreen assay for S1P4 antagonists: Fluorescence dose response cell-based screening assay for antagonists of the Sphingosine 1-Phosphate Receptor 5 (S1P5). [Related pubchem assays (depositor defined):AID1510, AID1524, AID1692, AID1853, AID2332, AID489009, AID489017]; assay type: functional
Sequence of Sphingosine 1-phosphate receptor 5 (Q9H228 whole entry): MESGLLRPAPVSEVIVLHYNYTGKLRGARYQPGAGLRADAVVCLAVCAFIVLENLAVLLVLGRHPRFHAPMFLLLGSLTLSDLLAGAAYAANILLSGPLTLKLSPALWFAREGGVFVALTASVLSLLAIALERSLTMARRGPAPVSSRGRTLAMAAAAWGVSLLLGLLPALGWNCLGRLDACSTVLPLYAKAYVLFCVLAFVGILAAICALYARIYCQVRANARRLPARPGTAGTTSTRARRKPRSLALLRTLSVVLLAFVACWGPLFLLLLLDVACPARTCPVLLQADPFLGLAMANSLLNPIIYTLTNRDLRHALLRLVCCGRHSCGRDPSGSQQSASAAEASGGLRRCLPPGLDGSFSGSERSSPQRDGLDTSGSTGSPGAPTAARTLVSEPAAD

[18] = target: Sphingosine 1-phosphate receptor 1 (Homo sapiens, UniProt P21453); test: Late stage counterscreen assay for S1P4 antagonists: Fluorescence dose response cell-based screening assay for antagonists of the Sphingosine 1-Phosphate Receptor 1 (S1P1). [Related pubchem assays (depositor defined):AID1510, AID1524, AID1692, AID1853, AID2332, AID489009, AID489017]; assay type: functional
Sequence of Sphingosine 1-phosphate receptor 1 (P21453 whole entry): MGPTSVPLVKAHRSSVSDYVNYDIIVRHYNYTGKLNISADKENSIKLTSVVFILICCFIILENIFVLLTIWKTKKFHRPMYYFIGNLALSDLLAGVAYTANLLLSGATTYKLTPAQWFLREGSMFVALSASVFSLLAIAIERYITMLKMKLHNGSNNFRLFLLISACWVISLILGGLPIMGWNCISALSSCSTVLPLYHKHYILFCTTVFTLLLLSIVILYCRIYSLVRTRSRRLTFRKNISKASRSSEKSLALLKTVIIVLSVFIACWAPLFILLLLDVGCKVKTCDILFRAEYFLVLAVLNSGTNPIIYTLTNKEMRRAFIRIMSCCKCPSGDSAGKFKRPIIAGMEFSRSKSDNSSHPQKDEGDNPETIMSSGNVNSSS

[19] = target: Sphingosine 1-phosphate receptor 2 (Homo sapiens, UniProt O95136); test: Late stage counterscreen assay for S1P4 antagonists: Fluorescence dose response cell-based screening assay for antagonists of the Sphingosine 1-Phosphate Receptor 2 (S1P2). [Related pubchem assays (depositor defined):AID1510, AID1524, AID1692, AID1853, AID2332, AID489009, AID489017]; assay type: functional
[20] = target: Sphingosine 1-phosphate receptor 3 (Homo sapiens, UniProt Q99500); test: Late stage counterscreen assay for S1P4 antagonists: Fluorescence dose response cell-based screening assay for antagonists of the Sphingosine 1-Phosphate Receptor 3 (S1P3). [Related pubchem assays (depositor defined):AID1510, AID1524, AID1692, AID1853, AID2332, AID489009, AID489017]; assay type: functional
[21] = tested on: HEK293; test: cells; settings: Homo sapiens
[22] = target: T4, Nucleotide-binding oligomerization domain-containing protein 2; test: PubChem AID 2334; assay type: functional
[23] = target: T2, Nucleotide-binding oligomerization domain-containing protein 1; test: blockers of NOD1 pathway activity – revised, SAR follow-up (AID 2333); assay type: functional
[24] = target: T1, Tumor necrosis factor; test: analog potency on TNFa NF-kB signaling – cell-based, revised, SAR follow-up (AID 2337); assay type: functional
[25] = target: T5, Mu-type opioid receptor (Homo sapiens, UniProt P35372); test: mu opioid receptor blockers – image-based, SAR follow-up (AID 2420); assay type: functional;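 note: compounds added before stimulation of receptor with agonist DAMGO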
T5 sequence (P35372 whole entry): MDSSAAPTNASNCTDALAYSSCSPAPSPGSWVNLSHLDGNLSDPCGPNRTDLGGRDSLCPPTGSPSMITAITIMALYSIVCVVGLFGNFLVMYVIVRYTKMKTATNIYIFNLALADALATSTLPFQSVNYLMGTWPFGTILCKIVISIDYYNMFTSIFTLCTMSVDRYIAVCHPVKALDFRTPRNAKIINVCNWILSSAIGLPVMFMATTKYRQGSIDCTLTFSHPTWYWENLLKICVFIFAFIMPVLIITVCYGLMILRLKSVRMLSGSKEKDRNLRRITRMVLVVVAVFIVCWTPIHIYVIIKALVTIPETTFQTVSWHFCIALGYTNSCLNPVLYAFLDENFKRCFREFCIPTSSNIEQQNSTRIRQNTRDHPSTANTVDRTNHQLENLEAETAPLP

[26] = target: T6, Delta-type opioid receptor (Homo sapiens, UniProt P41143); test: DOR agonists, SAR follow-up, image-based (AID 2370); assay type: functional
T6 sequence (P41143 whole entry): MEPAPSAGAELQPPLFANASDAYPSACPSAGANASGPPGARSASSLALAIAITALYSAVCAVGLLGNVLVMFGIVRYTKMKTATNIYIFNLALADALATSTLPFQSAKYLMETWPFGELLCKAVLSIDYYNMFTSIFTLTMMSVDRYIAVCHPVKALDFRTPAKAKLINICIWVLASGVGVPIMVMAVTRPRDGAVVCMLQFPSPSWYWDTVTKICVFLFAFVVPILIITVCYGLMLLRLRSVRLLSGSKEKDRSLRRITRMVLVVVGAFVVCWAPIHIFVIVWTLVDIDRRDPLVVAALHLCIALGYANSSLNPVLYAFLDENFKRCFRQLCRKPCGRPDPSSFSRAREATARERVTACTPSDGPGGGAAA

[27] = target: T7, Kappa-type opioid receptor (Homo sapiens, UniProt P41145); test: kappa opioid receptor activation potency – imaging, image-based, SAR follow-up (AID 2359); assay type: functional
T7 sequence (P41145 whole entry): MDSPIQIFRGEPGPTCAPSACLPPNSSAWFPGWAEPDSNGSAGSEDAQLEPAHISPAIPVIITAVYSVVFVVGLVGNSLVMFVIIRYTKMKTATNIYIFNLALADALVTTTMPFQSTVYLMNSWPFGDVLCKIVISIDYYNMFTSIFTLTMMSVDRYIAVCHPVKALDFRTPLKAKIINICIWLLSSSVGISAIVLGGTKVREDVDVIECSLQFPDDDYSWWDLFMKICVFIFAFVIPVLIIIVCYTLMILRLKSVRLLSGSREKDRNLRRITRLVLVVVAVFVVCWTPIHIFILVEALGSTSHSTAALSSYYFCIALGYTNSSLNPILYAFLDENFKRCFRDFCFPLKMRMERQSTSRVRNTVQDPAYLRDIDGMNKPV

[28] = target: T5, Mu-type opioid receptor; test: mu opioid receptor activators, image-based, SAR follow-up (AID 2352); assay type: functional
[29] = target: T7, Kappa-type opioid receptor; test: kappa opioid receptor blockers, cell-based, luminescence, beta-arrestin, SAR follow-up (AID 2285); assay type: functional
[30] = target: T6, Delta-type opioid receptor; test: delta opioid receptor blockers – image-based, SAR follow-up (AID 2357); assay type: functional
[31] = target: T7, Kappa-type opioid receptor; test: kappa opioid receptor blockers, image-based, SAR follow-up (AID 2348); assay type: functional
[32] = Luminescence Cell-Based Dose Retest to Confirm Inhibitors of Cancer Stem Cells. [Related pubchem assays (depositor defined):AID2717, AID2721]; assay type: functional; settings: Homo sapiens
[33] = target: T8, Alkaline phosphatase, tissue-nonspecific isozyme (Homo sapiens, UniProt P05186); test: activation of tissue-nonspecific alkaline phosphatase – biochemical, TNAP isozyme, human IAP uHTS hits, selectivity assay for human IAP activator project, dose response (AID 488886); assay type: functional;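 note: potency of compounds raising TNAP activity as a selectivity check on IAP activators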
T8 sequence (P05186 whole entry): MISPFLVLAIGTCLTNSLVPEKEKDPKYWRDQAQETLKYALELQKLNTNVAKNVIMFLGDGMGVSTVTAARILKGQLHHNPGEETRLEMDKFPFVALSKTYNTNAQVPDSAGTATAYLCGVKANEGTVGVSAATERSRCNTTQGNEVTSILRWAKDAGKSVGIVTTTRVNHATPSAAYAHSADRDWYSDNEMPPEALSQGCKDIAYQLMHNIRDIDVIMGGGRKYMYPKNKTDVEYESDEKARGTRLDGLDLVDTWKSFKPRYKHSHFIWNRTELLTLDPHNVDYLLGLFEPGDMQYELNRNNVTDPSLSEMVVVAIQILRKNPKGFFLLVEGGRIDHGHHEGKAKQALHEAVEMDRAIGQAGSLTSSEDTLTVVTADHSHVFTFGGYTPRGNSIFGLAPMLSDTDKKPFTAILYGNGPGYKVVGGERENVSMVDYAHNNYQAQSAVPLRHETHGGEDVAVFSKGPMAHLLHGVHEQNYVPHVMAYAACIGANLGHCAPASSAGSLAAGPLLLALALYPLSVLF

[34] = target: T9, Intestinal-type alkaline phosphatase (Homo sapiens, UniProt P09923); test: activation of human intestinal alkaline phosphatase – biochemical, luminescent, uHTS hits, set 2, dose response (AID 488817); assay type: functional;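 note: potency of activators that raise enzyme activity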
T9 sequence (P09923 whole entry): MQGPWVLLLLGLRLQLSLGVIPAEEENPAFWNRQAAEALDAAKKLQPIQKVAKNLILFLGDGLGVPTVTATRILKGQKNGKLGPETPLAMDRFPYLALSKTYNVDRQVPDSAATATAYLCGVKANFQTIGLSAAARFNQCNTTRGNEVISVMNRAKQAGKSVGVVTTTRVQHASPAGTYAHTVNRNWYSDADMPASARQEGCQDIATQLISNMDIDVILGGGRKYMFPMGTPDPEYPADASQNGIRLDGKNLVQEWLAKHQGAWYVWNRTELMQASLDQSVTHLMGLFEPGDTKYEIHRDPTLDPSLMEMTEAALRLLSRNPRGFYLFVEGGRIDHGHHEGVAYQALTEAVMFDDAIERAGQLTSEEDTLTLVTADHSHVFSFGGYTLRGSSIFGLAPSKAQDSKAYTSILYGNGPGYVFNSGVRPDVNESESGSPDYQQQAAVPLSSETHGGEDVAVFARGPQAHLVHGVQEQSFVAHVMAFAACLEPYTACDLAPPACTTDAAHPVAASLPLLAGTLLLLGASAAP

[35] = target: Intestinal-type alkaline phosphatase (Mus musculus, UniProt P24822); test: PubChem AID 488875; assay type: functional
Sequence of Intestinal-type alkaline phosphatase (Mus musculus, UniProt P24822) (P24822 whole entry): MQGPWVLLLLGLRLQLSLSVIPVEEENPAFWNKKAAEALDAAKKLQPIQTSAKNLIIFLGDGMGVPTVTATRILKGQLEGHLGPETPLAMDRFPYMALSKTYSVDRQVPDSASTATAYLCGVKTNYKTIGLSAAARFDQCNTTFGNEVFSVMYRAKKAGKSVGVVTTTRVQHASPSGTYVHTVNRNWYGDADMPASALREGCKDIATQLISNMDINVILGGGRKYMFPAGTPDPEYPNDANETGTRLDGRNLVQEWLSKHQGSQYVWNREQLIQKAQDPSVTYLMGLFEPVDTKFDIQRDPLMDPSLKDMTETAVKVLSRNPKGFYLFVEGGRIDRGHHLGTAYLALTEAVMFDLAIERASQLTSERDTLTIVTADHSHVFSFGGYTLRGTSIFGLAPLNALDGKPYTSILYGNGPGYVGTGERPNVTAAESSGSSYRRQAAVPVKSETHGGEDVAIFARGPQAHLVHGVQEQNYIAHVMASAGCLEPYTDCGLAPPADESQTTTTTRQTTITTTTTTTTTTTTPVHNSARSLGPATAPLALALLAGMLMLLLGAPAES

[36] = target: T9, Intestinal-type alkaline phosphatase; test: human intestinal alkaline phosphatase activators, dose response, biochemical, luminescence, uHTS hits (AID 463120); assay type: functional

T1 sequence (P01375 whole entry, the tested form may be a part): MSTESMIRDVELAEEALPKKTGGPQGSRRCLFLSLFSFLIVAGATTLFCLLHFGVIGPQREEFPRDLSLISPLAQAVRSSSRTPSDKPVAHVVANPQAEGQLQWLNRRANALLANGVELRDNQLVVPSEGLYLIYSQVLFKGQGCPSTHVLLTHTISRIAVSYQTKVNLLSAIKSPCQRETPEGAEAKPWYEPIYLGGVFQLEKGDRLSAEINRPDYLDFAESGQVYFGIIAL
Sequence of Cytochrome P450 2D6 (P10635 whole entry): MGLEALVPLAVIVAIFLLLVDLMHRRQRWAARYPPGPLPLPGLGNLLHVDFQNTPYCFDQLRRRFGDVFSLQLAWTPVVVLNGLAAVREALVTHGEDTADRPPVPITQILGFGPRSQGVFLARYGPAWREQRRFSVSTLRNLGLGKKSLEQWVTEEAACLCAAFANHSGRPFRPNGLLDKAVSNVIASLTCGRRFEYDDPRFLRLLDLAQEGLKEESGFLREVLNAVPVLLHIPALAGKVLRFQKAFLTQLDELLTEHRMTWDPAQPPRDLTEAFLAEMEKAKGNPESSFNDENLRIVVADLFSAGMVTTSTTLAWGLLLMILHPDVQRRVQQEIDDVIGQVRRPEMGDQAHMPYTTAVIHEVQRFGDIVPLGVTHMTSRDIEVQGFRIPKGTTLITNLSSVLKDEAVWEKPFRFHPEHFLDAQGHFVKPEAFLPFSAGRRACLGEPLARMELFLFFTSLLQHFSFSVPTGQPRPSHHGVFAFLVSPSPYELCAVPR

Cc1cn([C@H]2C[C@H](O)[C@@H](COC(N)=O)O2)c(=O)[nH]c1=O
inconclusive: AC50 [1]

C/C=C/Cn1c(SCc2ccccc2)nc2c1c(=O)[nH]c(=O)n2C
active: IC50 [8] 18.6 µM
inactive: IC50 [2] > 20 µM | IC50 [3] > 25 µM | IC50 [4] > 20 µM | IC50 [5] > 25 µM | IC50 [6] > 20 µM | IC50 [7] > 25 µM | IC50 [9] > 20 µM | IC50 [10] > 20 µM

O=C(Nc1nnc(-c2ccccc2)o1)c1ccc(Cl)cc1
active: EC50 [12] 0.26 µM | EC50 [13] 3.15 µM | EC50 [14] 3.14 µM | EC50 [15] 0.67 µM
inactive: IC50 [11] 47 µM | IC50 [16] 44.2 µM

COc1cccc(C)c1NC(=O)c1ccc(-c2cc(Cl)ccc2Cl)o1
inactive: IC50 [17] 11.2 µM
active: IC50 [18] 9.31 µM | IC50 [19] 4.77 µM | IC50 [20] 9.87 µM

CC(=O)Nc1nc2ccccc2n1S(=O)(=O)c1ccc(C)cc1
inactive: IC50 [21] > 20 µM | IC50 [22] > 20 µM | IC50 [24] > 20 µM
active: IC50 [23] 3.8 µM

O=C(NC(NC(=S)Nc1cccc(Br)c1)C(Cl)(Cl)Cl)OCc1ccccc1 (stereo unspecified)
inactive: IC50 [25] > 32 µM | EC50 [26] > 32 µM | EC50 [27] > 32 µM | EC50 [28] > 32 µM | IC50 [29] > 10 µM | IC50 [30] > 32 µM | IC50 [31] > 32 µM

Cc1ccc(-c2cc(C(=O)N/N=C/c3ccccc3O)[nH]n2)o1
inactive: EC50 [35] > 100 µM
active: AC50 [32] 8.36 µM | EC50 [33] 3.89 µM | EC50 [34] 6.54 µM | EC50 [36] 5.71 µM
